{
  "source": "patent US20080299602A1",
  "about": "“Methods of Employing Vascular Leakage to Diagnose a Capillary Leak Disorder” (priority 2007, published 2008)",
  "system": "omental vessels of the rat",
  "assay": "Vascular leakage after intravenous bolus of marinobufagenin (FIG. 1), fluorescein-tagged albumin videomicroscopy",
  "format": "in vivo",
  "conditions": "bolus of 200 nM marinobufagenin injected intravenously, time increments vs control (Con)",
  "experimental": "FIG. 1 illustrates increasing vascular leakage at time increments from 5 seconds to 50 seconds with Con being the control group.\nA bolus of 200 nM marinobufagenin was injected intravenously.\nIn the experimental procedure, single venules were visualized by way of a videomicroscopic technique, which permits viewing blood flow directly. The rats were injected with albumin that had been tagged with fluorescein dye. The distribution of the albumin in the omental vessels of the rat was then observed with a computer being employed to repeatedly measure the dye in the blood vessel and in the interstitium next to the blood vessel, as well as a remote site, which would serve as the control.",
  "data": [
    {"compound": "C[C@]12CC[C@H](O)C[C@@]1(O)CC[C@@H]1[C@@H]2CC[C@]2(C)[C@@H](c3ccc(=O)oc3)C[C@H]3O[C@]132", "note": "[marinobufagenin]", "values": [
      {"measurement": "vascular leakage (dye monitored within the extravascular space)", "value": "progressive, large leakage"}
    ]}
  ]
}
